This is an account of results in US20260124173A1, “THERAPEUTIC ALKALOID COMPOUNDS” (Sensorium Therapeutics, Inc., priority 2023, published 2026).

SMILES strings stand for the structures. Read-outs that look alike come from different tables or passages of the source. A value given as a limit tells only on which side of the number the result lay.

The conditions of data set [1]: in vivo; cited from earlier work.
A further data set has as its target T1, SERT (Homo sapiens, UniProt P31645).
T1 construct: expressed in transfected cells
The data set is described as follows: SERT inhibition assay (Neurotransmitter Transportation Fluorescence assay, stable 5 HTT cells). In kind it is cell-based. As for the experimental part:
SERT inhibition can be measured using a Neurotransmitter Transportation Fluorescence assay. Briefly, stable 5 HTT cells were prepared in a 384 microwell plate. Compounds were prepared in assay buffer (20 mM HEPES, 0.1% BSA). The compounds were added to the plated cells and incubated for 30 minutes at 37° C. 25 μL of dye solution (Molecular Devices Neurotransmitter Transporter Uptake Assay Kit) is added per well and incubated for 30 minutes at 37° C. The plates are then read on a plate reader.

A short description of data set [2]: Intestinal S9 metabolic stability, human. The class given is in vitro ADME. As for the experimental part: (§1) A master solution was prepared according to the Table B2 below.
(§2) Add 222.5 μL of master solution and 25 μL of 10 mM NADPH solution to the incubation plates. Pre-warm for 10 min. The reaction was started with the addition of 2.5 μL of 100 μM control compound or test compound solutions. Verapamil, Midazolam and Testosterone were used as positive control in this study. The final concentration of control compounds and test compounds was 1 μM. Aliquots of 25 μL were taken from the reaction solution at 0.5, 5, 15, 30, 45 and 60 minutes. The reaction was stopped by the addition of 5 volumes of cold acetonitrile with IS (100 nM alprazolam, 200 nM caffeine and 100 nM tolbutamide). Samples were centrifuged at 3, 220 g for 30 minutes. Aliquot of 100 μL of the supernatant was mixed with 100 μL of ultra-pure H2O and then used for LC-MS/MS analysis.
(§3) All calculations were carried out using Microsoft Excel. Peak areas were determined from extracted ion chromatograms. The slope value, k, was determined by linear regression of the natural logarithm of the remaining percentage of the parent drug vs. incubation time curve. The in vitro half-life (in vitro t1/2) was determined from the slope value:
(§4) Conversion of the in vitro t1/2 (min) into the in vitro intrinsic clearance (in vitro CLint, in uL/min/mg protein) was done using the following equation (mean of duplicate determinations): […]
The metabolic stability of Compound 243 was tested in human, monkey, dog and rat (2 replicate measurement). For comparison, verapamil was tested in human and monkey (2 replicates), midazolam was tested in dog (2 replicates), and testosterone was tested in rat (2 replicates).

Data set [3] is classed as in vitro ADME, dog. The procedure:
as §1, §2, §3, §4

Data set [4] can be described thus: Intestinal S9 metabolic stability, rat. In kind it is in vitro ADME. The procedure: as §1, §2, §3, §4

T1 sequence (P31645 whole entry, species assumed): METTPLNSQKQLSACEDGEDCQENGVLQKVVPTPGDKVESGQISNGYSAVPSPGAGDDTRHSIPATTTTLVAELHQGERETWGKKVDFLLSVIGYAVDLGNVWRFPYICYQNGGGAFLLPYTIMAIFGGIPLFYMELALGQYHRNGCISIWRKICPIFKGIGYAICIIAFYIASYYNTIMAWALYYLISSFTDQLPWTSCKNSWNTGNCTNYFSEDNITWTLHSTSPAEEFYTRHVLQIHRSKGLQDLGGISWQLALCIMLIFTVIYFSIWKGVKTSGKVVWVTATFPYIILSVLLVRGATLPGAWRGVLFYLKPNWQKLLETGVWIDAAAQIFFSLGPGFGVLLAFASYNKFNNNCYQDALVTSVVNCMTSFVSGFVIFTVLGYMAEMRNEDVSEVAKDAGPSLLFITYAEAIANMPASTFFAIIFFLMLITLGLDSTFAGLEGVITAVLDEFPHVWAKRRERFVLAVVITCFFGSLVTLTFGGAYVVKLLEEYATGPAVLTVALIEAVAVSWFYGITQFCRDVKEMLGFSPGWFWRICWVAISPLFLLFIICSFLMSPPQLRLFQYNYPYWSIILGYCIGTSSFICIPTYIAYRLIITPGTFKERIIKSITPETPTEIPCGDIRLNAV

As for `COc1ccc([C@@]23CCC(=O)C[C@@H]2N(C)CC3)cc1OC` [Compound 001, (−)-Mesembrine], the half-life in plasma entry in data set [1] is reported as “less than 2 hours”.

What is called IC50 is the concentration needed to halve the response being measured. Higher therefore signals a need for much substance. As for `COc1ccc([C@@]23CC=C(C)C[C@@H]2N(C)CC3)cc1OC` [Compound 242, (3aS,7aS)-3a-(3,4-dimethoxyphenyl)-1,6-dimethyl-2,3,3a,4,7,7a-hexahydro-1H-indole], the IC50 against SERT (Table B1) is under 50 nM.

A word on the half-life: it is how long it takes for the measured level to halve. In turn, `COc1ccc([C@@]23CCC(C)=C[C@@H]2N(C)CC3)cc1OC` [Compound 243, (3aS,7aS)-3a-(3,4-dimethoxyphenyl)-1,6-dimethyl-2,3,3a,4,5,7a-hexahydro-1H-indole] returned a half-inhibitory concentration (IC50) at SERT (Table B1) of under 50 nM. Besides, the “median half-life, times greater than verapamil” value in data set [2] is given as 33 times. The “median CLint (micrograms/min/mg protein), times greater for verapamil than Compound 243” value in data set [2] (human, 1 µM) is “more than 23 times”. Further, the half-life at 1 µM in data set [2] (human, s9) was over 24 h. The “median half-life, times greater than the half-life of midazolam” value in data set [3] is on record as “more than 168 times”. Also, in data set [3] (dog, 1 µM), the “median CLint (micrograms/min/mg protein), times greater for midazolam than Compound 243” value is on record as “more than 164 times”. Further, in data set [4] (1 µM), the “median CLint (micrograms/min/mg protein), times greater for testosterone than Compound 243” value is recorded as “about 30 times”. The “median half-life, times greater than the half-life of testosterone” value in data set [4] (Compound 243 versus testosterone) is “about 30 times”.

Take `COc1ccc([C@@]23CC=C(C)C[C@@H]2N(C)CC3)cc1OC` [drawing 203]: the IC50 at SERT was under 50 nM.

At SERT, `COc1ccc([C@@]23CCC(C)=C[C@@H]2N(C)CC3)cc1OC` [drawing 204] had an IC50 of under 50 nM.

As to `COc1ccc([C@@]23CCC(C)=C[C@@H]2N(C)CC3)cc1OC` [drawing 205], the IC50 against SERT was under 50 nM.
